Reference: ChEMBL document CHEMBL1133752, “Synthesis and antiviral evaluation of trisubstituted indole N-nucleosides as analogues of 2,5,6-trichloro-1-(beta-D-ribofuranosyl)benzimidazole (TCRB)” (J Med Chem, 2000)
pIC50: −log10 of the molar value.

Tests used:
HFF [1] = test: Antiviral activity against HCMV was determined by plaque reduction assay using HFF cells; assay type: functional, cell-based; details: Homo sapiens
[2] = ELISA assay was performed using BSC-1 cells to determine activity against HSV-1; assay type: functional, cell-based, Cercopithecidae
[3] = Inhibition of KB cell growth was determined.; assay type: functional, cell-based; details: Homo sapiens
HFF [4] = test: Visual cytotoxicity was scored on HFF cells at time of HCMV plaque enumeration; assay type: functional, cell-based; details: Homo sapiens
HFF [5] = test: Antiviral activity against HCMV was determined by yield reduction assay using HFF cells; assay type: functional; details: Homo sapiens

Row | SMILES | pIC50 (HFF [1]) | pIC50 [2] | pIC50 [3] | pIC50 (HFF [4]) | IC90 (HFF [5])
1 | Clc1cc2cc(Br)[nH]c2cc1Cl | 4.85 | 4.15 | 4.15 | 4.49 | 
2 | OC[C@H]1O[C@@H](n2c(Cl)nc3cc(Cl)c(Cl)cc32)[C@H](O)[C@@H]1O |  | 3.99 | 3.68 |  | 1.4 µM
3 | OC[C@H]1OC(n2c(Cl)cc3cc(Cl)c(Cl)cc32)[C@H](O)[C@@H]1O (some centres not stated) | 4.38 | < 4.00 | < 4.00 | < 4.00 | 50 µM
4 | OC[C@H]1OC(n2c(Br)cc3cc(Cl)c(Cl)cc32)[C@H](O)[C@@H]1O (some centres not stated) | 4.74 | < 4.00 | < 4.00 | 4.00 | 42 µM
5 | OC[C@H]1O[C@@H](n2c(SCc3ccccc3)cc3cc(Cl)c(Cl)cc32)CC1O (some centres not stated) | 4.49 | 4.40 | 4.22 | 4.49 | 
6 | O=C(O)P(=O)(O)O [FOSCARNET] | 4.41 |  |  | < 4.00 | 
7 | Nc1nc2c(ncn2COC(CO)CO)c(=O)[nH]1 [GANCICLOVIR] |  | 5.46 | < 4.00 | < 4.00 | 1.6 µM
